# The supplement of paper PMC11208160
# Experiment: recombinant barcode read abundance after kanamycin selection (control-corrected) (log10(CPM+1)); higher = more efficient recombination; sequences stand for … in AGTGCAGAGAAAATCGGCCAGTTTTCTCTGCCTGCAGTCCGCATGCCGT…AGATTTATGCAGCGGACTGCCTTTCTCCCAAAGTGATAAACCGGACAGTATCATGGACCGGTTTTCCCGGTAATCCGTATTTGCAAGGTTGGTTTCACT; site = the 11-nt target
# Method in brief: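 Recombination efficiency comes from barcode counts at recombinant junctions, converted to counts per million, averaged and corrected against the control. Values appear as log10(CPM+1). They were obtained from a pooled E. coli screen in which each oligo paired a target with an IS621 bridge RNA target-binding loop, and cells were plated in duplicate on chloramphenicol/ampicillin LB agar or on chloramphenicol/ampicillin/kanamycin with 0.1 mM IPTG.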
# 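Also: IS621 recombinase and bridge RNA in Escherichia coli cells.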
row,Sequence,recombinant barcode read abundance (log10)
1,CTATGTGCTTGGGTTCTAACCTGTTGCCT (site CTATGTGCTAC),0.298
2,CTATGTGCTTGGGTTCTAACCTGTTGCCT (site CTATGTGCTAG),1.62
3,CTATGTGCTTGGGTTCTAACCTGTTGCCT (site CTATGTGCTAT),0.305
4,CTATGTGCTTGGGTTCTAACCTGTTGCGA (site CTATGTGCTTC),1.87
5,CTATGTGCTTGGGTTCTAACCTGTTGCGA (site GTATGTGCTTT),0.139
6,CTATGTGCTTGGGTTCTAACCTGTTGCGT (site CTATGTGCTAA),0.0372
7,CTATGTGCTTGGGTTCTAACCTGTTGCGT (site CTATGTGCTAC),1.54
8,CTATGTGCTTGGGTTCTAACCTGTTGCGT (site CTATGTGCTAG),0.0548
9,CTATGTGCTTGGGTTCTAACCTGTTGCGT (site CTATGTGCTAT),0.298
10,CTATTCCCTTGGGTTCTAACCTGTTGCCT (site CTATTCACTAG),0.1
11,CTATTCCCTTGGGTTCTAACCTGTTGCCT (site CTATTCCCTAG),1.52
12,CTATTCCCTTGGGTTCTAACCTGTTGCCT (site CTATTCGCTAG),0.286
13,CTATTCCCTTGGGTTCTAACCTGTTGCCT (site CTATTCTCTAG),0.483
14,CTATTGTCTTGGGTTCTAACCTGTTGCGG (site CTATTGTCTAC),0.714
15,CTATTGTCTTGGGTTCTAACCTGTTGCGG (site CTATTGTCTCC),1.35
16,CTATTGTCTTGGGTTCTAACCTGTTGCGG (site CTATTGTCTGC),0.249
17,CTATTGTCTTGGGTTCTAACCTGTTGCGG (site CTATTGTCTTC),0.17
18,CTCAATACTTGGGTTCTAACCTGTTGCGA (site CTCAATACTTC),1.15
19,CTCAATACTTGGGTTCTAACCTGTTGCGA (site CTCAATTCTTT),0.0435
20,CTCAGACCTTGGGTTCTAACCTGTTGCTG (site CTCAGACCTCA),0.037
21,CTCAGACCTTGGGTTCTAACCTGTTGCTG (site TCACACACTAG),0.463
22,CTCATATCTTGGGTTCTAACCTGTTGCCA (site CTAATATCTTG),0.0804

row,Sequence,recombinant barcode read abundance (log10)
1,CTCATATCTTGGGTTCTAACCTGTTGCCA (site CTCATATCTTG),0.162
2,CTCCAGACTTGGGTTCTAACCTGTTGCAG (site CTCCAGACTCT),1.87
3,CTCCAGACTTGGGTTCTAACCTGTTGCAG (site CTGCAGACTCG),0.0775
4,CTCCAGGCTTGGGTTCTAACCTGTTGCGG (site CTCAAGGCTAC),0.427
5,CTCCAGGCTTGGGTTCTAACCTGTTGCGG (site CTCCAGGCTCC),1.55
6,CTCCGAACTTGGGTTCTAACCTGTTGCTT (site CTCCGAACTAA),0.144
7,CTCCGAACTTGGGTTCTAACCTGTTGCTT (site CTCCGTACTAT),0.0428
8,CTCCGACCTTGGGTTCTAACCTGTTGCTT (site CTCCGACCTAA),1.67
9,CTCCGACCTTGGGTTCTAACCTGTTGCTT (site CTCCGCCCTAA),0.0228
10,CTCCGACCTTGGGTTCTAACCTGTTGCTT (site CTCCGGCCTAA),0.327
11,CTCCGACCTTGGGTTCTAACCTGTTGCTT (site CTCCGTCCTAA),0.103
12,CTCCGAGCTTGGGTTCTAACCTGTTGCTA (site CTCCGAGCTTA),0.0161
13,CTCCGAGCTTGGGTTCTAACCTGTTGCTA (site CTCCTAGCTAA),0.00807
14,CTCGACACTTGGGTTCTAACCTGTTGCTG (site CTCGACACTCA),1.6
15,CTCGACACTTGGGTTCTAACCTGTTGCTG (site CTCTACACTCA),0.191
16,CTCGCTACTTGGGTTCTAACCTGTTGCTT (site CTCGATACTAA),0.0927
17,CTCGCTACTTGGGTTCTAACCTGTTGCTT (site CTCGCTACTAA),0.264
18,CTCGCTCCTTGGGTTCTAACCTGTTGCCA (site CTCGCTCCTTG),0.275
19,CTCGCTCCTTGGGTTCTAACCTGTTGCCA (site GAAAAGTCTCA),0.113
20,CTCGGAACTTGGGTTCTAACCTGTTGCAT (site CTCGGAACTAT),1.86
21,CTCGGAACTTGGGTTCTAACCTGTTGCAT (site CTGGGAACTCT),0.00945
22,CTCGGGCCTTGGGTTCTAACCTGTTGCCT (site ATCGGGCCTAG),0.0932

row,Sequence,recombinant barcode read abundance (log10)
1,CTCGGGCCTTGGGTTCTAACCTGTTGCCT (site CTCGGGCCTAG),0.144
2,CTCGGGCCTTGGGTTCTAACCTGTTGCCT (site GTCGGGCCTAG),0.0296
3,CTCGGGCCTTGGGTTCTAACCTGTTGCCT (site TTCGGGCCTAG),0.0756
4,CTCGTTACTTGGGTTCTAACCTGTTGCCT (site CTCGTAACTAG),0.0393
5,CTCGTTACTTGGGTTCTAACCTGTTGCCT (site CTCGTCACTAG),0.112
6,CTCGTTACTTGGGTTCTAACCTGTTGCCT (site CTCGTGACTAG),0.0469
7,CTCGTTACTTGGGTTCTAACCTGTTGCCT (site CTCGTTACTAG),0.682
8,CTCGTTGCTTGGGTTCTAACCTGTTGCCT (site ATCGTTGCTAG),0.0725
9,CTCGTTGCTTGGGTTCTAACCTGTTGCCT (site CTCGTTGCTAG),0.519
10,CTCGTTGCTTGGGTTCTAACCTGTTGCCT (site GTCGTTGCTAG),0.0989
11,CTCGTTGCTTGGGTTCTAACCTGTTGCCT (site TTCGTTGCTAG),0.0838
12,CTCTAGTCTTGGGTTCTAACCTGTTGCAT (site CTCTAGTCTAA),0.545
13,CTCTAGTCTTGGGTTCTAACCTGTTGCAT (site CTCTAGTCTAC),0.263
14,CTCTAGTCTTGGGTTCTAACCTGTTGCAT (site CTCTAGTCTAG),0.109
15,CTCTAGTCTTGGGTTCTAACCTGTTGCAT (site CTCTAGTCTAT),1.8
16,CTCTAGTCTTGGGTTCTAACCTGTTGCGT (site CTCTAGTCTAA),0.268
17,CTCTAGTCTTGGGTTCTAACCTGTTGCGT (site CTCTAGTCTAC),2.54
18,CTCTAGTCTTGGGTTCTAACCTGTTGCGT (site CTCTAGTCTAG),0.125
19,CTCTAGTCTTGGGTTCTAACCTGTTGCGT (site CTCTAGTCTAT),1.79
20,CTCTCAGCTTGGGTTCTAACCTGTTGCGA (site CTCTAAACTTC),0.15
21,CTCTCAGCTTGGGTTCTAACCTGTTGCGA (site CTCTCAGCTTC),0.549
22,CTCTCCACTTGGGTTCTAACCTGTTGCCA (site CTCTCCACTTG),0.138

row,Sequence,recombinant barcode read abundance (log10)
1,CTCTCCACTTGGGTTCTAACCTGTTGCCA (site CTCTCGACTTG),0.0411
2,CTCTCCGCTTGGGTTCTAACCTGTTGCCT (site CTCTCCGCTAG),0.77
3,CTCTCCGCTTGGGTTCTAACCTGTTGCCT (site CTCTCCTCTAG),0.0931
4,CTCTCGACTTGGGTTCTAACCTGTTGCCA (site CTCTCCACTTG),0.0478
5,CTCTCGACTTGGGTTCTAACCTGTTGCCA (site CTCTCGACTTG),0.328
6,CTCTCGTCTTGGGTTCTAACCTGTTGCAT (site CTCTCGTCTAA),0.0866
7,CTCTCGTCTTGGGTTCTAACCTGTTGCAT (site CTCTCGTCTAC),0.08
8,CTCTCGTCTTGGGTTCTAACCTGTTGCAT (site CTCTCGTCTAG),0.0361
9,CTCTCGTCTTGGGTTCTAACCTGTTGCAT (site CTCTCGTCTAT),1.45
10,CTCTCGTCTTGGGTTCTAACCTGTTGCGG (site CTCTCGTCTCC),1.16
11,CTCTCGTCTTGGGTTCTAACCTGTTGCGG (site GGACGTGCTAG),0.127
12,CTCTGGACTTGGGTTCTAACCTGTTGCTT (site CTCTGGACTAA),1.13
13,CTCTGGACTTGGGTTCTAACCTGTTGCTT (site CTCTTGACTAA),0.0289
14,CTCTTCGCTTGGGTTCTAACCTGTTGCCT (site CTCTTCACTCG),0.208
15,CTCTTCGCTTGGGTTCTAACCTGTTGCCT (site CTCTTCGCTAG),0.314
16,CTGAAGCCTTGGGTTCTAACCTGTTGCCT (site ATGAAGCCTAG),0.0394
17,CTGAAGCCTTGGGTTCTAACCTGTTGCCT (site CTGAAGCCTAG),1.74
18,CTGAAGCCTTGGGTTCTAACCTGTTGCCT (site GTGAAGCCTAG),0.386
19,CTGAAGCCTTGGGTTCTAACCTGTTGCCT (site TTGAAGCCTAG),0.409
20,CTGACTTCTTGGGTTCTAACCTGTTGCCT (site CAGACTTCTAG),0.0484
